# Test results as given in US6541463B1, “Inhibitors of type 5 and type 3 17β-hydroxysteroid dehydrogenase and methods for their use” (Endorecherche, Inc., priority 1998, dated 2003).
# Experiments:
# [1] = molecular target: T1, androgen receptor (Rattus norvegicus, UniProt P15207); test: Androgen receptor (AR) assay: inhibition of [3H]R1881 binding, prostate cytosol
# T1 construct: from tissue; host or cells: ventral prostate cytosol of gonadectomized male Sprague-Dawley rats
# T1 sequence (P15207 1-902): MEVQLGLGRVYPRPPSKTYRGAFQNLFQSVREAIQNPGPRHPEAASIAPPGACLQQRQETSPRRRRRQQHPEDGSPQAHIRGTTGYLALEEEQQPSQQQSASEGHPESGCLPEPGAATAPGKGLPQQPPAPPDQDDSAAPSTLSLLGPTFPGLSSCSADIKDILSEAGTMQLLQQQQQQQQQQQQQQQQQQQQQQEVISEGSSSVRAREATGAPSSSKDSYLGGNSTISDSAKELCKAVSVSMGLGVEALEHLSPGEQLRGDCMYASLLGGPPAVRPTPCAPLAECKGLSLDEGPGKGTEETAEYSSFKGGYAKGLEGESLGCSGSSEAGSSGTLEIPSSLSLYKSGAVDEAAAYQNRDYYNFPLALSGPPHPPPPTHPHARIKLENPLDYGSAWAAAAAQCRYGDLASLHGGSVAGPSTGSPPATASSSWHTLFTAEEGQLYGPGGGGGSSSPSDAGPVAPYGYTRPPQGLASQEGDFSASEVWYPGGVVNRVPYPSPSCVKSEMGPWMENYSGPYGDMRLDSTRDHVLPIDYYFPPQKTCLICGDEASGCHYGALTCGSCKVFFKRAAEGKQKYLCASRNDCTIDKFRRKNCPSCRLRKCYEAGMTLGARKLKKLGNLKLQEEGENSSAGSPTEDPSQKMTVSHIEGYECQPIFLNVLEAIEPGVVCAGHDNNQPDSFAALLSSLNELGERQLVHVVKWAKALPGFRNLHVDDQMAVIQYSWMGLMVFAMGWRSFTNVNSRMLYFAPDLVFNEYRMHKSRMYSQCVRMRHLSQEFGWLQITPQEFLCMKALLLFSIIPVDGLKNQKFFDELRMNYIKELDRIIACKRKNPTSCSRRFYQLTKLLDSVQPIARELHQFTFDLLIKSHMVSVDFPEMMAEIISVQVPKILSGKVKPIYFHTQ
# Procedure: The manner in which the percentage of inhibition is determined is described in “Other Tests; D-Androgen Receptor (AR) Assays”. Lower numbers are desirable.
# (§1) Male Sprague-Dawley rats (Crl: CD(SD)Br) weighing 200-300 g were obtained from Charles-River Inc. (St-Constant, Québec, Canada). The rats were gonadectomized under general anesthesia (Isoflurane) and killed by cervical dislocation 24 hours later. The ventral prostates were rapidly removed, dissected free from adhering tissue and frozen on dry-ice. Prostates were kept at −80° C. until assay.
# All subsequent steps were performed at 0-4° C. Prostates were homogenized in 5 vol (wt/vol) of buffer A (25 mM Tris-HCl, 1.5 mM EDTA disodium salt, 10 mM α-monothioglycerol, 10% glycerol, and 10 mM sodium molybdate, pH 7.4), using a Polytron PT-10 homogenizer (Brinkman Instruments, Canada) at a setting of 5 for three periods of 10 sec, with intervals of 10 sec for cooling. The homogenate was then centrifuged at 105,000×g for 60 min in a Beckman L5-65 ultracentrifuge (Fullerton, Calif.).
# Androgen binding was measured using the hydroxylapatite assay (HAP). In brief, the radioactive steroid [^3H]R1881 solubilized in ethanol was diluted into buffer A. Aliquots of prostate cytosol preparation (0.1 ml) were then incubated with 8 nM [^3H]R1881 (0.1 ml, ˜200,000 cpm) in the presence or absence of the indicated concentrations of unlabeled compounds (0.1 ml, prepared in buffer A containing 10% ethanol) for 16-18 h at 0-4° C. […] Unbound steroids were separated by incubation for 40 min at 0-4° C. with 0.3 ml HAP prepared in buffer P (50 mM, Tris-HCl, 10 mM KH2PO4, pH 7.4) as follows: 10 g HAP were washed with buffer P until the supernatant reached a pH of 7.4 and then following centrifugation and decantation of the supernatant, 37.5 ml of buffer P were added. After incubation with HAP and 10 minutes of centrifugation at 1,000×g, the pellet was washed 3 times with 1 ml buffer P. Thereafter, the radioactivity was extracted from the pellet by incubation at room temperature for 60 minutes with 1 ml EtOH. After centrifugation, the supernatant was decanted into a scintillation vial and the pellet was extracted again with ethanol.
# [2] = system: progesterone receptor; test: Progesterone receptor assay: inhibition of [3H]R5020 binding, uterine cytosol; set-up: species or system rat
# Procedure: The manner in which the percentage of inhibition is determined is described in “Other Tests; E-Progesterone Receptor Assay”. Lower numbers are desirable.
# [17α-methyl-^3H]-promegestone (R5020) (84 Ci/mmol) and the corresponding unlabeled compound were purchased from New England Nuclear (Lachine, Québec, Canada). All other chemicals were of analytical grade.
# Stock solutions of the unlabeled steroids were kept at 4° C. in ethanol. The desired steroid solutions were then prepared by appropriate dilution in buffer B (10 mM Tris-HCl, 1.5 mM EDTA, 10 mM α-monothioglycerol, pH 7.4) containing 30% ethanol.
# as §1, with “Female” for “Male”, “rats” for “rats (Crl: CD(SD)Br)”, “uteri are” for “ventral prostates were”, “Tissues” for “Prostates”, “use.” for “assay.”
# All procedures were performed at 4° C. Tissues were pulverized frozen in dry ice with a Thermovac pulverizer. The samples were then homogenized in 10 vol (w/v) of buffer A (25 mM Tris-HCl, 1.5 mM EDTA, 10 mM α-monothioglycerol, 10% glycerol, 10 mM sodium molybdate, pH 7.4) using a Polytron PT-10 homogenizer (Brinkmann Instruments, Canada) at a setting of 5 for two periods of 10 sec, with intervals of 10 sec for cooling. The homogenate was then centrifuged at 105,000×g for 90 min. The supernatant was used immediately for assay.
# Progesterone binding was measured using the dextran-coated charcoal adsorption technique. […] Each concentration was done in triplicate. Assay was ended with 300 μl of DCC (1% Norit A and 0.1% Dextran T-70 in Buffer B). After 10 min of incubation, tubes were centrifuged at 2,000×g for 10 min. and decanted in vials with 6 ml of BCS liquid scintillation (New England Nuclear, Dupont). The radioactivity was measured in a Beckman counter at a counting efficiency of 35%.
SMILES,"inhibition at 1 µM ([1]; Table 4′, E^−6) [%]","inhibition at 0.01 µM ([1]; Table 4′, E^−8) [%]","% Inhibition Progesterone Receptor E^−6 ([2]; Table 4′, E^−6) [%]","% Inhibition Progesterone Receptor E^−8 ([2]; Table 4′, E^−8) [%]",also measured
"C[C@]12CCC(=O)C=C1C=C[C@@H]1[C@@H]2CC[C@]2(C)C(=O)C3(CC4CC4C3)C[C@@H]12 (stereo partly drawn) [EM-1299, 4,6-Androstadien-3,17-dione-16-spirobicyclo[3′.1′.0′]-hexane]",–,–,–,–,% Inhibition Androgen Receptor E^−6 ([1]; E^−6): 3%; % Inhibition Androgen Receptor E^−8 ([1]; E^−8): 1%; % Inhibition Progesterone Receptor E^−6 ([2]; E^−6): 0%; % Inhibition Progesterone Receptor E^−8 ([2]; E^−8): 0%
COc1ccc2c(c1)C(=O)CC1C2CC[C@@]2(C)C1CC[C@@]21CCC(C)(C)C(=O)O1 (stereo partly drawn) [EM-1394],0,0,4,2,–
CN(C)CCOc1ccc2c(c1)CCC1C2CCC2(C)C1CCC21CCC(C)(C)C(=O)O1 (stereo not drawn) [EM-1389-CS],0,0,0,3,–
COc1c(Br)cc2c(c1Br)CCC1C2CCC2(C)C1CCC21CCC(C)(C)C(=O)O1 (stereo not drawn) [EM-1385-CS],0,0,2,2,–
CC1CCC2(CCC3C4CCc5ccccc5C4CCC32C)OC1=O (stereo not drawn) [EM-1025],0,0,4,0,–
CN(C)C(=O)c1ccc2c(c1)CCC1C2CCC2(C)C1CCC21CCC(C)(C)C(=O)O1 (stereo not drawn) [EM-1403],0,0,0,0,–
"CSCCOc1ccc2c(c1)CCC1C2CCC2(C)C1CCC21CCCC(=O)O1 [CS-242, 3-Methylthioethyloxy-1,3,5(10)-estratrien-17(R)-spiro-2′-(6′-oxo) Tetrahydropyran]",0,0,0,0,–
COCCOc1cc2c(cc1Cl)C1CCC3(C)C(CCC34CCC(C)(C)C(=O)O4)C1CC2 (stereo not drawn) [EM-1371-CS],1,0,3,0,–
CC(=O)[C@@]1(OC(=O)CCCCF)CCC2C3C=C(C)C4=CC(=O)CC[C@]4(C)C3CC[C@@]21C (stereo partly drawn) [EM-1195-CS],–,–,–,–,% Inhibition Androgen Receptor ([1]; E^−6): 62%; % Inhibition Androgen Receptor ([1]; E^−8): 1%; % Inhibition Progesterone Receptor ([2]; E^−6): 70%; % Inhibition Progesterone Receptor ([2]; E^−8): 0%
"COCCOc1ccc2c(c1)CCC1C2CCC2(C)C1CCC21CCC(C)(C)C(=O)O1 [EM-1368-CS, 3-Methoxyethoxy-1,3,5(10)-estratrien-17(R)-spiro-2′-(5′,5′-dimethyl-6′-oxo)-tetrahydropyran]",0,0,3,0,–
"CC1CCC2(CCC3C4CCc5cc(O)c([N+](=O)[O-])cc5C4CCC32C)OC1=O [EM-1131, 2-Nitro-1,3,5(10)-estratrien-3-ol-17(R)-spiro-2′-(5′-methyl-6′-oxo)tetrahydropyran]",–,2,10,2,"% Inhibition Androgen Receptor E^−6 ([1]; Table 4′, E^−6): 1%"
CCCCN(C)C(=O)[C@@]1(OC(C)=O)CCC2C3C=C(C)C4=CC(=O)CC[C@]4(C)C3CC[C@@]21C (stereo partly drawn) [EM-1165],–,–,–,–,% Inhibition Androgen Receptor ([1]; E^−6): 1%; % Inhibition Androgen Receptor ([1]; E^−8): 0%; % Inhibition Progesterone Receptor ([2]; E^−6): 7%; % Inhibition Progesterone Receptor ([2]; E^−8): 0%
CC(C)C[C@@H]1CC2C3C=CC4=CC(=O)CC[C@]4(C)C3CC[C@]2(C)C1=O (stereo partly drawn) [EM-1273-CS],–,–,–,–,inhibition at 1 µM ([1]; E^−6): 0%; inhibition at 0.01 µM ([1]; E^−8): 0%; % Inhibition Progesterone Receptor E^−6 ([2]; E^−6): 0%; % Inhibition Progesterone Receptor E^−8 ([2]; E^−8): 0%
CC12CCC3c4ccc(F)cc4CCC3C1CCC21CCCC(=O)O1 (stereo not drawn) [EM-1170-CS],1,0,24,1,–
CC1(C)CC[C@@]2(CCC3C4CCc5cc(C(N)=O)ccc5C4CCC32C)OC1=O (stereo partly drawn) [EM-1404],0,0,0,0,–
CC(=O)O[C@]1(C(=O)N(C)C)CCC2C3C=C(C)C4=CC(=O)CC[C@]4(C)C3CC[C@@]21C (stereo partly drawn) [EM-1159],–,–,–,–,% Inhibition Androgen Receptor ([1]; E^−6): 1%; % Inhibition Androgen Receptor ([1]; E^−8): 1%; % Inhibition Progesterone Receptor ([2]; E^−6): 4%; % Inhibition Progesterone Receptor ([2]; E^−8): 2%
CC1(C)CCC2(CCC3C4CCc5ccccc5C4CCC32C)OC1=O (stereo not drawn) [CS-224],0,0,5,2,–
CC12C=CC(=O)C=C1C=CC1C2CCC2(C)C(=O)C3(CCCCC3)CC12 (stereo not drawn) [CS-204],–,–,–,–,inhibition at 1 µM ([1]; E^−6): 5%; inhibition at 0.01 µM ([1]; E^−8): 0%; % Inhibition Progesterone Receptor E^−6 ([2]; E^−6): 2%; % Inhibition Progesterone Receptor E^−8 ([2]; E^−8): 0%
"COC(=O)CCCC(=O)O[C@]1(C(C)=O)CC[C@H]2[C@@H]3C=C(C)C4=CC(=O)CC[C@]4(C)[C@H]3CC[C@@]21C [EM-1007, 6-Methyl-4,6-pregnadien-17α-ol-3,20-dione 4′-Carbomethoxybutyrate]",–,–,–,–,% Inhibition Androgen Receptor ([1]; E^−6): 0%; % Inhibition Androgen Receptor ([1]; E^−8): 0%; % Inhibition Progesterone Receptor ([2]; E^−6): 0%; % Inhibition Progesterone Receptor ([2]; E^−8): 0%
COc1ccc2c(c1)C(=O)CC1C3CCC4(CCC(C)(C)C(=O)O4)C3(C)CCC21O (stereo not drawn) [EM-1386],0,0,0,0,–
"COCCOc1cc2c(cc1C(=O)O)C1CCC3(C)C(CCC34CCC(C)(C)C(=O)O4)C1CC2 [EM-1405, 2-Carboxy-3-(2″-methoxyethyloxy)-1,3,5(10)-estratrien-17(R)-spiro-2′-(5′,5′-dimethyl-6′-oxo)tetrahydropyran]",0,0,0,0,–
